{"source": "patent US6737383B1", "about": "“Herbicidal oxadiazolidines” (priority 1999, dated 2004)", "details_in_all_cases": "Preemergence", "key": {"[1]": {"test_system": "bedstraw", "experiment": "Test B pre/postemergence bedstraw", "type": "in vivo, Galium aparine", "how_it_was_run": "(§1)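 Herbicidal effect was estimated by eye on a ten-point control scale after plants spent twelve to sixteen days in a greenhouse following soil or foliar treatment. Foliar sprays targeted plants at one to four leaves; all doses were formulated in a non-phytotoxic solvent with surfactant.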"}, "[2]": {"test_system": "blackgrass", "experiment": "Test B pre/postemergence blackgrass", "type": "in vivo, Alopecurus myosuroides", "how_it_was_run": "as §1"}, "[3]": {"test_system": "surinam grass", "experiment": "Test B pre/postemergence surinam grass", "type": "in vivo, Brachiaria decumbens", "how_it_was_run": "as §1"}, "[4]": {"test_system": "cocklebur", "experiment": "Test B pre/postemergence cocklebur", "type": "in vivo, Xanthium strumarium", "how_it_was_run": "as §1"}, "[5]": {"test_system": "corn", "experiment": "Test B pre/postemergence corn", "type": "in vivo, Zea mays", "how_it_was_run": "as §1"}, "[6]": {"test_system": "crabgrass", "experiment": "Test B pre/postemergence crabgrass", "type": "in vivo, Digitaria sanguinalis", "how_it_was_run": "as §1"}, "[7]": {"test_system": "giant foxtail", "experiment": "Test B pre/postemergence giant foxtail", "type": "in vivo, Setaria faberii", "how_it_was_run": "as §1"}, "[8]": {"test_system": "morningglory", "experiment": "Test B pre/postemergence morningglory", "type": "in vivo, Ipomoea hederacea", "how_it_was_run": "as §1"}, "[9]": {"test_system": "pigweed", "experiment": "Test B pre/postemergence pigweed", "type": "in vivo, Amaranthus retroflexus", "how_it_was_run": "as §1"}, "[10]": {"test_system": "rape", "experiment": "Test B pre/postemergence rape", "type": "in vivo, Brassica napus", "how_it_was_run": "as §1"}, "[11]": {"test_system": "soybean", "experiment": "Test B pre/postemergence soybean", "type": "in vivo, Glycine max", "how_it_was_run": "as §1"}, "[12]": {"test_system": "sugar beet", "experiment": "Test B pre/postemergence sugar beet", "type": "in vivo, Beta vulgaris", "how_it_was_run": "as §1"}, "[13]": {"test_system": "velvetleaf", "experiment": "Test B pre/postemergence velvetleaf", "type": "in vivo, Abutilon theophrasti", "how_it_was_run": "as §1"}, "[14]": {"test_system": "wheat", "experiment": "Test B pre/postemergence wheat", "type": "in vivo, Triticum aestivum", "how_it_was_run": "as §1"}, "[15]": {"test_system": "wild oat", "experiment": "Test B pre/postemergence wild oat", "type": "in vivo, Avena fatua", "how_it_was_run": "as §1"}, "[16]": {"test_system": "purple nutsedge", "experiment": "Test B pre/postemergence purple nutsedge", "type": "in vivo, Cyperus rotundus", "how_it_was_run": "as §1"}, "[17]": {"details": "Rate 62 g/ha, scale of 0 to 10 where 0 is no effect and 10 is complete control"}, "[18]": {"details": "Rate 125 g/ha, scale of 0 to 10 where 0 is no effect and 10 is complete control"}, "[19]": {"details": "Rate 250 g/ha, scale 0 to 10 (0 no effect, 10 complete control)"}, "[20]": {"details": "Rate 500 g/ha, scale of 0 to 10 where 0 is no effect and 10 is complete control"}, "[21]": {"details": "Rate 250 g/ha, scale 0 (no effect) to 10 (complete control)"}, "[22]": {"details": "Rate 500 g/ha, scale 0 to 10 (0 no effect, 10 complete control)"}}}
{"compound": "CCn1ncc(Cn2c(=O)on(C(=O)N(c3ccc(F)cc3)C(C)C)c2=O)c1Cl", "note": "[Compound 686]", "values": [{"measurement": "Bedstraw plant response rating", "setting": "[1]; [17]", "value": 0}, {"measurement": "Plant response rating, Bedstraw", "setting": "[1]; [18]", "value": 0}, {"measurement": "Plant response rating, Bedstraw", "setting": "[1]; [19]", "value": 0}, {"measurement": "Plant response rating, Bedstraw", "setting": "[1]; [20]", "value": 0}, {"measurement": "Blackgrass plant response rating", "setting": "[2]; [17]", "value": 4}, {"measurement": "Plant response rating, Blackgrass", "setting": "[2]; [18]", "value": 7}, {"measurement": "Plant response rating, Blackgrass", "setting": "[2]; [19]", "value": 8}, {"measurement": "Plant response rating, Blackgrass", "setting": "[2]; [20]", "value": 9}, {"measurement": "B. signalgrass plant response rating", "setting": "[3]; [17]", "value": 2}, {"measurement": "Plant response rating, B. signalgrass", "setting": "[3]; [18]", "value": 5}, {"measurement": "Plant response rating, B. signalgrass", "setting": "[3]; [19]", "value": 7}, {"measurement": "Plant response rating, B. signalgrass", "setting": "[3]; [20]", "value": 9}, {"measurement": "Cocklebur plant response rating", "setting": "[4]; [17]", "value": 0}, {"measurement": "Plant response rating, Cocklebur", "setting": "[4]; [19]", "value": 0}, {"measurement": "Plant response rating, Cocklebur", "setting": "[4]; [20]", "value": 0}, {"measurement": "Corn plant response rating", "setting": "[5]; [17]", "value": 0}, {"measurement": "Plant response rating, Corn", "setting": "[5]; [18]", "value": 0}, {"measurement": "Plant response rating, Corn", "setting": "[5]; [19]", "value": 0}, {"measurement": "Crabgrass plant response rating", "setting": "[6]; [17]", "value": 8}, {"measurement": "Plant response rating, Crabgrass", "setting": "[6]; [18]", "value": 9}, {"measurement": "Plant response rating, Crabgrass", "setting": "[6]; [19]", "value": 10}, {"measurement": "Giant foxtail plant response rating", "setting": "[7]; [17]", "value": 9}, {"measurement": "Plant response rating, Giant foxtail", "setting": "[7]; [18]", "value": 9}, {"measurement": "Morningglory plant response rating", "setting": "[8]; [17]", "value": 0}, {"measurement": "Plant response rating, Morningglory", "setting": "[8]; [18]", "value": 0}, {"measurement": "Redroot pigweed plant response rating", "setting": "[9]; [17]", "value": 0}, {"measurement": "Plant response rating, Redroot pigweed", "setting": "[9]; [18]", "value": 6}, {"measurement": "Rape plant response rating", "setting": "[10]; [17]", "value": 0}, {"measurement": "Plant response rating, Rape", "setting": "[10]; [18]", "value": 0}, {"measurement": "Soybean plant response rating", "setting": "[11]; [17]", "value": 0}, {"measurement": "Plant response rating, Soybean", "setting": "[11]; [18]", "value": 0}, {"measurement": "Sugarbeets plant response rating", "setting": "[12]; [17]", "value": 0}, {"measurement": "Plant response rating, Sugarbeets", "setting": "[12]; [18]", "value": 0}, {"measurement": "Velvetleaf plant response rating", "setting": "[13]; [17]", "value": 0}, {"measurement": "Plant response rating, Velvetleaf", "setting": "[13]; [18]", "value": 0}, {"measurement": "Wheat plant response rating", "setting": "[14]; [17]", "value": 0}, {"measurement": "Plant response rating, Wheat", "setting": "[14]; [18]", "value": 0}, {"measurement": "Wild oats plant response rating", "setting": "[15]; [17]", "value": 0}, {"measurement": "Plant response rating, Wild oats", "setting": "[15]; [18]", "value": 1}, {"measurement": "Nutsedge plant response rating", "setting": "[16]; [17]", "value": 0}, {"measurement": "Plant response rating, Nutsedge", "setting": "[16]; [18]", "value": 0}]}
{"compound": "CC(C)N(C(=O)n1oc(=O)n(C(C)C2CCC2)c1=O)c1ccccc1", "note": "(centres unmarked) [Compound 717]", "values": [{"measurement": "Bedstraw plant response rating", "setting": "[1]; [17]", "value": 0}, {"measurement": "Bedstraw plant response rating", "setting": "[1]; [21]", "value": 0}, {"measurement": "Bedstraw plant response rating", "setting": "[1]; [22]", "value": 0}, {"measurement": "Blackgrass plant response rating", "setting": "[2]; [17]", "value": 9}, {"measurement": "Blackgrass plant response rating", "setting": "[2]; [21]", "value": 10}, {"measurement": "Blackgrass plant response rating", "setting": "[2]; [22]", "value": 10}, {"measurement": "B. signalgrass plant response rating", "setting": "[3]; [17]", "value": 4}, {"measurement": "B. signalgrass plant response rating", "setting": "[3]; [21]", "value": 7}, {"measurement": "B. signalgrass plant response rating", "setting": "[3]; [22]", "value": 7}, {"measurement": "Cocklebur plant response rating", "setting": "[4]; [17]", "value": 0}, {"measurement": "Cocklebur plant response rating", "setting": "[4]; [21]", "value": 0}, {"measurement": "Cocklebur plant response rating", "setting": "[4]; [22]", "value": 0}, {"measurement": "Corn plant response rating", "setting": "[5]; [17]", "value": 0}, {"measurement": "Corn plant response rating", "setting": "[5]; [21]", "value": 3}, {"measurement": "Corn plant response rating", "setting": "[5]; [22]", "value": 9}, {"measurement": "Crabgrass plant response rating", "setting": "[6]; [17]", "value": 10}, {"measurement": "Crabgrass plant response rating", "setting": "[6]; [21]", "value": 10}, {"measurement": "Crabgrass plant response rating", "setting": "[6]; [22]", "value": 10}, {"measurement": "Giant foxtail plant response rating", "setting": "[7]; [17]", "value": 10}, {"measurement": "Giant foxtail plant response rating", "setting": "[7]; [21]", "value": 10}, {"measurement": "Giant foxtail plant response rating", "setting": "[7]; [22]", "value": 10}, {"measurement": "Morningglory plant response rating", "setting": "[8]; [17]", "value": 0}, {"measurement": "Morningglory plant response rating", "setting": "[8]; [21]", "value": 0}, {"measurement": "Morningglory plant response rating", "setting": "[8]; [22]", "value": 0}, {"measurement": "Redroot pigweed plant response rating", "setting": "[9]; [17]", "value": 6}, {"measurement": "Redroot pigweed plant response rating", "setting": "[9]; [21]", "value": 8}, {"measurement": "Redroot pigweed plant response rating", "setting": "[9]; [22]", "value": 8}, {"measurement": "Rape plant response rating", "setting": "[10]; [17]", "value": 0}, {"measurement": "Rape plant response rating", "setting": "[10]; [21]", "value": 0}, {"measurement": "Rape plant response rating", "setting": "[10]; [22]", "value": 4}, {"measurement": "Soybean plant response rating", "setting": "[11]; [17]", "value": 0}, {"measurement": "Soybean plant response rating", "setting": "[11]; [21]", "value": 0}, {"measurement": "Soybean plant response rating", "setting": "[11]; [22]", "value": 0}, {"measurement": "Sugarbeets plant response rating", "setting": "[12]; [17]", "value": 0}, {"measurement": "Sugarbeets plant response rating", "setting": "[12]; [21]", "value": 2}, {"measurement": "Sugarbeets plant response rating", "setting": "[12]; [22]", "value": 3}, {"measurement": "Velvetleaf plant response rating", "setting": "[13]; [17]", "value": 0}, {"measurement": "Velvetleaf plant response rating", "setting": "[13]; [21]", "value": 0}, {"measurement": "Velvetleaf plant response rating", "setting": "[13]; [22]", "value": 0}, {"measurement": "Wheat plant response rating", "setting": "[14]; [17]", "value": 0}, {"measurement": "Wheat plant response rating", "setting": "[14]; [21]", "value": 0}, {"measurement": "Wheat plant response rating", "setting": "[14]; [22]", "value": 0}, {"measurement": "Wild oats plant response rating", "setting": "[15]; [17]", "value": 9}, {"measurement": "Wild oats plant response rating", "setting": "[15]; [21]", "value": 9}, {"measurement": "Wild oats plant response rating", "setting": "[15]; [22]", "value": 10}, {"measurement": "Nutsedge plant response rating", "setting": "[16]; [17]", "value": 0}, {"measurement": "Nutsedge plant response rating", "setting": "[16]; [21]", "value": 0}, {"measurement": "Nutsedge plant response rating", "setting": "[16]; [22]", "value": 0}]}
